The record followed here is patent US11370763B2, “Compounds and compositions for treating conditions associated with NLRP activity” (Novartis AG, priority 2017, dated 2022).

Each structure is given as a SMILES string. Some results are limits rather than exact numbers.

For the first assay, the system named is IL-1β production in PMA-differentiated THP-1 cells. The experiment in a line: IL-1β production in PMA-differentiated THP-1 cells stimulated with gramicidin (hTHP-1 assay containing 2% fetal bovine serum; Procedures 1-3). The assay is classed as cell-based, human. Particulars: Homo sapiens, THP-1, hTHP-1 assay containing 2% fetal bovine serum; class symbols; read-out: hTHP-1 IC50 (Average IC50 of compounds in hTHP-1 assay). As for the experimental part:
The following protocol is suitable for testing the activity of the compounds disclosed herein.
Procedure 1: IL-1β Production in PMA-Differentiated THP-1 Cells Stimulated with Gramicidin
THP-1 cells were purchased from the American Type Culture Collection and sub-cultured according to instructions from the supplier. Cells were cultured in complete RPMI 1640 (containing 10% heat inactivated FBS, penicillin (100 units/ml) and streptomycin (100 μg/ml)), and maintained in log phase prior to experimental setup. Prior to the experiment, compounds were dissolved in dimethyl sulfoxide (DMSO) to generate a 30 mM stock. The compound stock was first pre-diluted in DMSO to 3, 0.34, 0.042 and 0.0083 mM intermediate concentrations and subsequently spotted using Echo550 liquid handler into an empty 384-well assay plate to achieve desired final concentration (e.g. 100, 33, 11, 3.7, 1.2, 0.41, 0.14, 0.046, 0.015, 0.0051, 0.0017 μM). DMSO was backfilled in the plate to achieve a final DMSO assay concentration of 0.37%. The plate was then sealed and stored at room temperature until required.
THP-1 cells were treated with PMA (Phorbol 12-myristate 13-acetate) (20 ng/ml) for 16-18 hours. On the day of the experiment the media was removed and adherent cells were detached with trypsin for 5 minutes. Cells were then harvested, washed with complete RPMI 1640, spun down, and resuspended in RPMI 1640 (containing 2% heat inactivated FBS, penicillin (100 units/ml) and streptomycin (100 μg/ml). The cells were plated in the 384-well assay plate containing the spotted compounds at a density of 50,000 cells/well (final assay volume 50 μl). Cells were incubated with compounds for 1 hour and then stimulated with gramicidin (5 μM) (Enzo) for 2 hours. Plates were then centrifuged at 340 g for 5 min. Cell free supernatant (40 μL) was collected using a 96-channel PlateMaster (Gilson) and the production of IL-1β was evaluated by HTRF (cisbio). The plates were incubated for 18 h at 4° C. and read using the preset HTRF program (donor emission at 620 nm, acceptor emission at 668 nm) of the SpectraMax i3x spectrophotometer (Molecular Devices, software SoftMax 6). A vehicle only control and a dose titration of CRID3 (100-0.0017 μM) were run concurrently with each experiment.
Procedure 2: IL-1β Production in PMA-Differentiated THP-1 Cells Stimulated with Gramicidin
THP-1 cells were purchased from the American Type Culture Collection and sub-cultured according to instructions from the supplier. Prior to experiments, cells were cultured in complete RPMI 1640 (containing 10% heat inactivated FBS, penicillin (100 units/ml) and streptomycin (100 μg/ml)), and maintained in log phase prior to experimental setup. Prior to the experiment THP-1 were treated with PMA (Phorbol 12-myristate 13-acetate) (20 ng/ml) for 16-18 hours. Compounds were dissolved in dimethyl sulfoxide (DMSO) to generate a 30 mM stock. On the day of the experiment the media was removed and adherent cells were detached with trypsin for 5 minutes. Cells were then harvested, washed with complete RPMI 1640, spun down, resuspended in RPMI 1640 (containing 2% heat inactivated FBS, penicillin (100 units/ml) and streptomycin (100 μg/ml). The cells were plated in a 384-well plate at a density of 50,000 cells/well (final assay volume 50 μl). Compounds were first dissolved in assay medium to obtain a 5× top concentration of 500 μM. 10 step dilutions (1:3) were then undertaken in assay medium containing 1.67% DMSO. 5× compound solutions were added to the culture medium to achieve desired final concentration (e.g. 100, 33, 11, 3.7, 1.2, 0.41, 0.14, 0.046, 0.015, 0.0051, 0.0017 μM). Final DMSO concentration was at 0.37%. Cells were incubated with compounds for 1 hour and then stimulated with gramicidin (5 μM) (Enzo) for 2 hours. Plates were then centrifuged at 340 g for 5 min. Cell free supernatant (40 μL) was collected using a 96-channel PlateMaster (Gilson) and the production of IL-1β was evaluated by HTRF (cisbio). […]
The term IC50 denotes the concentration that inhibits the measured activity by half. As for `CC(C)c1cc(C#N)cc(C2CC2)c1CC(=O)N=S(N)(=O)c1ccc(CN(C)C)cc1` (single isomer, unassigned) [Example 75, (R)- or (S)-2-(4-cyano-2-cyclopropyl-6-isopropylphenyl)-N-(4-((dimethylamino)methyl)phenyl-sulfonimidoyl)acetamide], the IC50 lay within 1 to 5 µM.

For `CC(C)c1cc(C#N)cc(C(C)C)c1CC(=O)N=S(N)(=O)c1ccc(C(C)(C)O)cc1Cl` (single isomer, unassigned) [Example 155, (R) or (S)-N-(amino(2-chloro-4-(2-hydroxypropan-2-yl)phenyl)(oxo)-λ^6-sulfaneylidene)-2-(4-cyano-2,6-diisopropylphenyl)acetamide], the IC50 was in the range of 0.2 to 1 µM.

In the case of `CC(C)c1cc2c(c(C(C)C)c1CC(=O)N=S(N)(=O)c1ccc(CN(C)C)cc1)COC2` (single isomer, unassigned) [Example 191, (R) or (S)-N-(amino(4-((dimethylamino)methyl)phenyl) (oxo)-λ^6-sulfaneylidene)-2-(4,6-diisopropyl-1,3-dihydroisobenzofuran-5-yl)acetamide], the IC50 was 1 to 5 µM.

With `CC(C)c1cc(F)cc(C(C)C)c1C(C)C(=O)N=S(N)(=O)c1cnc(C(C)(C)O)s1` (single isomer, unassigned) [Example 194, (R, S) or (R, R)-N-(amino(2-(2-hydroxypropan-2-yl)thiazol-5-yl)(oxo)-λ^6-sulfaneylidene)-2-(4-fluoro-2,6-diisopropylphenyl) propanamide], the IC50 is 5 to 30 µM.

For `CC(C)(O)c1ncc(S(N)(=O)=NC(=O)Cc2c(C3CC3)cc(F)cc2C(F)(F)F)s1` (single isomer, unassigned) [Example 196, (R) or (S)-N-(amino(2-(2-hydroxypropan-2-yl)thiazol-5-yl)(oxo)-λ^6-sulfaneylidene)-2-(2-cyclopropyl-4-fluoro-6-(trifluoromethyl)phenyl) acetamide], the IC50 was in the range of 5 to 30 µM.

Staying with this assay, now noted: Homo sapiens, THP-1, hTHP-1 assay containing 2% fetal bovine serum; given as numeric bound; read-out: hTHP-1 IC50 (Average IC50 of compounds in hTHP-1 assay).
On to `CC(C)c1cc2c(c(C(C)C)c1CC(=O)N=S(N)(=O)c1ccc(CN(C)C)cc1)COC2` (single isomer, unassigned) [Example 192, (S) or (R)-N-(amino(4-((dimethylamino)methyl)phenyl) (oxo)-λ^6-sulfaneylidene)-2-(4,6-diisopropyl-1,3-dihydroisobenzofuran-5-yl)acetamide], for which the IC50 is over 30 µM.

As to `CC(C)c1cc(F)cc(C(C)C)c1C(C)C(=O)N=S(N)(=O)c1cnc(C(C)(C)O)s1` (single isomer, unassigned) [Example 195, (R, R) or (R, S)-N-(amino(2-(2-hydroxypropan-2-yl)thiazol-5-yl)(oxo)-λ^6-sulfaneylidene)-2-(4-fluoro-2,6-diisopropylphenyl) propanamide], the IC50 is over 30 µM.

Still in this assay, the particulars now being: hTHP-1 assay containing 2% fetal bovine serum; class symbols; read-out: hTHP-1 IC50 (Average IC50 of compounds in hTHP-1 assay).
On to `CC(C)c1cc(OC(F)F)cc(C(C)C)c1CC(=O)N=S(N)(=O)c1sc(C(C)(C)O)cc1F` (single isomer, unassigned) [Example 76, (S)- or (R)-2-(4-(difluoromethoxy)-2,6-diisopropylphenyl)-N-(3-fluoro-5-(2-hydroxypropan-2-yl)thiophen-2-ylsulfonimidoyl)acetamide], for which the IC50 fell in the range of 0.04 to 0.2 µM.

Regarding `CCc1cc(OC(F)F)cc(C(C)C)c1CC(=O)N=S(N)(=O)c1sc(C(C)(C)O)cc1F` (single isomer, unassigned) [Example 78, (S)- or (R)-2-(4-(difluoromethoxy)-2-ethyl-6-isopropylphenyl)-N-(3-fluoro-5-(2-hydroxypropan-2-yl)thiophen-2-ylsulfonimidoyl)acetamide], the IC50 lay in the range of 0.2 to 1 µM.

Regarding `CC(C)c1cc(C#N)cc(C(C)C)c1CC(=O)N=S(N)(=O)c1ccc(C(C)(C)O)cc1Cl` (single isomer, unassigned) [Example 156, (S) or (R)-N-(amino(2-chloro-4-(2-hydroxypropan-2-yl)phenyl)(oxo)-λ^6-sulfaneylidene)-2-(4-cyano-2,6-diisopropylphenyl)acetamide], the IC50 was in the range of 0.2 to 1 µM.

With `CC(C)c1ccc(F)c(C(C)C)c1CC(=O)N=S(N)(=O)c1cc(C(C)(C)O)cs1` (single isomer, unassigned) [Example 159, (R) or (S)-N-(amino(4-(2-hydroxypropan-2-yl)thiophen-2-yl)(oxo)-λ^6-sulfaneylidene)-2-(3-fluoro-2,6-diisopropylphenyl)acetamide], the IC50 is 0.04 to 0.2 µM.

`CC(C)c1cc(-c2ccc3c(c2)OC(F)(F)O3)cc(C(C)C)c1CC(=O)N=S(N)(=O)c1ncc(C(C)(C)O)s1` (single isomer, unassigned) [Example 166, (R) or (S)-N-(amino(5-(2-hydroxypropan-2-yl)thiazol-2-yl)(oxo)-λ^6-sulfaneylidene)-2-(4-(2,2-difuorobenzo[d][1,3]dioxol-5-yl)-2,6-diisopropylphenyl)acetamide]: the IC50 fell in the range of 0.04 to 0.2 µM.

In the case of `Cc1ccc(-c2cc(C(C)C)c(CC(=O)N=S(N)(=O)c3ncc(C(C)(C)O)s3)c(C(C)C)c2)cc1C` (single isomer, unassigned) [Example 168, (R) or (S)-N-(amino(5-(2-hydroxypropan-2-yl)thiazol-2-yl)(oxo)-λ^6-sulfaneylidene)-2-(3,5-diisopropyl-3′,4′-dimethyl-[1,1′-biphenyl]-4-yl)acetamide], the IC50 is 0.2 to 1 µM.

As to `CC(C)c1cc(-c2ccc(Cl)c(Cl)c2)cc(C(C)C)c1CC(=O)N=S(N)(=O)c1ncc(C(C)(C)O)s1` (single isomer, unassigned) [Example 170, (R) or (S)-N-(amino(5-(2-hydroxypropan-2-yl)thiazol-2-yl)(oxo)-λ^6-sulfaneylidene)-2-(3′,4′-dichloro-3,5-diisopropyl-[1,1′-biphenyl]-4-yl)acetamide], the IC50 was 0.2 to 1 µM.

On to `CC(C)c1cc(-c2ccc3c(c2)COCC3)cc(C(C)C)c1CC(=O)N=S(N)(=O)c1cnc(C(C)(C)O)s1` (single isomer, unassigned) [Example 171, (R) or (S)-N-(amino(2-(2-hydroxypropan-2-yl)thiazol-5-yl)(oxo)-λ^6-sulfaneylidene)-2-(4-(isochroman-7-yl)-2,6-diisopropylphenyl)acetamide], for which the IC50 fell in the range of 0.2 to 1 µM.

For `CC(C)c1ccc(F)c(C(C)C)c1CC(=O)N=S(N)(=O)c1ccc(C(C)(C)O)s1` (single isomer, unassigned) [Example 176, (R) or (S)-N-(amino(5-(2-hydroxypropan-2-yl)thiophen-2-yl)(oxo)-λ^6-sulfaneylidene)-2-(3-fluoro-2,6-diisopropylphenyl)acetamide], the IC50 was in the range of 0.2 to 1 µM.

In the case of `CC(C)c1ccc(C#N)c(C(C)C)c1CC(=O)N=S(N)(=O)c1nc(C(C)(C)O)cs1` (single isomer, unassigned) [Example 179, (R) or (S)-N-(amino(4-(2-hydroxypropan-2-yl)thiazol-2-yl)(oxo)-λ^6-sulfaneylidene)-2-(3-cyano-2,6-diisopropylphenyl)acetamide], the IC50 lay in the range of 0.2 to 1 µM.

For `COCc1cc(C(C)C)c(CC(=O)N=S(N)(=O)c2ncc(C(C)(C)O)s2)c(C(C)C)c1` (single isomer, unassigned) [Example 185, (R) or (S)-N-(amino(5-(2-hydroxypropan-2-yl)thiazol-2-yl)(oxo)-λ^6-sulfaneylidene)-2-(2,6-diisopropyl-4-(methoxymethyl)phenyl) acetamide], the IC50 lay within 0.04 to 0.2 µM.
